Entries after “also recorded” stand apart in the source; their conditions may differ.
Tested on: A549 (Lung Mesothelial Carcinoma) cells
Assay type: cell-based

Substance: C60(OH)n (n˜1-48) [PHF]
- observed damage to cells: restricted to the top layer of cells; also recorded: damage of multiple layers of cells

Source: patent US9475028B2 (priority 2006, dated 2016)
